PMC6437697 (Journal of Medicinal Chemistry, 2019)

Key:
Assay in all cases: KINOMEscan
Assay type in all cases: binding
Conditions in all cases: read-out: % control activity remaining
MST1R = target: T1, MST1R (Homo sapiens, UniProt Q04912)
T1 construct: purchased Eurofins DiscoverX KINOMEscan

CDK7 = target: T2, CDK7 (Homo sapiens, UniProt P50613)
T2 construct: purchased Eurofins DiscoverX KINOMEscan

NEK11 = target: T3, NEK11 (Homo sapiens, UniProt Q8NG66)
T3 construct: purchased Eurofins DiscoverX KINOMEscan
T3 sequence (Q8NG66 1-645): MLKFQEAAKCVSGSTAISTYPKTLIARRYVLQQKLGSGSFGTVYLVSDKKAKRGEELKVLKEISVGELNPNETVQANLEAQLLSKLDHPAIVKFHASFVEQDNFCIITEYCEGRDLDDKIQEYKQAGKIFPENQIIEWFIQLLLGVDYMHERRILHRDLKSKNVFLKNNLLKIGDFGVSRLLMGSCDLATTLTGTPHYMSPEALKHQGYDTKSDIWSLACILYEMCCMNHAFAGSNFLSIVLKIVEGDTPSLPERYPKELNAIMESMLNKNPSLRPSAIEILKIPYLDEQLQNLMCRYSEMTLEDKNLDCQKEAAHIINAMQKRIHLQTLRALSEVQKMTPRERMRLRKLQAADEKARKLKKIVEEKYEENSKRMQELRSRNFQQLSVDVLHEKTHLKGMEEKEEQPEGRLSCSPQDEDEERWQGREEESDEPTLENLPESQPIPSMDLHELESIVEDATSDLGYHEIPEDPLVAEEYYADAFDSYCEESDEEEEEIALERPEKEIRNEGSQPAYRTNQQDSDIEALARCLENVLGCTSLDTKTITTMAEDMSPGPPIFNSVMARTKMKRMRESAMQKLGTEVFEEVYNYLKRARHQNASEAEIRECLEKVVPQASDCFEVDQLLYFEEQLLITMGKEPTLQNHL

EGFR(L858R) = target: T4, EGFR(L858R) (Homo sapiens, UniProt P00533, L858R)
T4 construct: purchased Eurofins DiscoverX KINOMEscan

[1] = target: T5, RSK4(Kin.Dom.2-C-terminal) (Homo sapiens, UniProt Q9UK32)
T5 construct: RSK4(Kin.Dom.2-C-terminal); purchased Eurofins DiscoverX KINOMEscan
T5 sequence (Q9UK32 426-683 limits assumed): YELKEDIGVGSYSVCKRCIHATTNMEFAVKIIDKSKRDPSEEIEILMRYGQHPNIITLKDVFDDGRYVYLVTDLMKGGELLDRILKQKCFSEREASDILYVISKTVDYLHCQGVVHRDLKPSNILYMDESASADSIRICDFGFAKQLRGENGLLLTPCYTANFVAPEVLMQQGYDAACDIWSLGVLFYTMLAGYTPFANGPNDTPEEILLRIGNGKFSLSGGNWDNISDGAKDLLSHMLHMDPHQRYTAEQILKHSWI

PKN1 = target: T6, PKN1 (Homo sapiens, UniProt Q16512)
T6 construct: purchased Eurofins DiscoverX KINOMEscan

DYRK2 = target: T7, DYRK2 (Homo sapiens, UniProt Q92630)
T7 construct: purchased Eurofins DiscoverX KINOMEscan
T7 sequence (Q92630 1-601): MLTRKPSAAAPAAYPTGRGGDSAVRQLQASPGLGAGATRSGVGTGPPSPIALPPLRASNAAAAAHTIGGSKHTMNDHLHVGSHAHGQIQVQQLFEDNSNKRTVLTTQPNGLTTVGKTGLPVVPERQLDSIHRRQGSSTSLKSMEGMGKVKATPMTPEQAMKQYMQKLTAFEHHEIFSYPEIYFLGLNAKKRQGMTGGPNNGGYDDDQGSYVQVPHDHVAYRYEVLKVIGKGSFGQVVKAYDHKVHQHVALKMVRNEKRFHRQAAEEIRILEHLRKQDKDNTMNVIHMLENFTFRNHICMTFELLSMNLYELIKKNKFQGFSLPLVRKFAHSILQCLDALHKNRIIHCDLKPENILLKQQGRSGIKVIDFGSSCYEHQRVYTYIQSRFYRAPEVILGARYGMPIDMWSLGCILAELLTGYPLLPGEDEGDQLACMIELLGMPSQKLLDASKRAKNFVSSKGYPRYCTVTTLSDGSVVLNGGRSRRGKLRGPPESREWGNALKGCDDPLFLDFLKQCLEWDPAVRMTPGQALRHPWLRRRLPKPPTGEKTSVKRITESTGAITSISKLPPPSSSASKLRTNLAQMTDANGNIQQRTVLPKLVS

ABL1-nonphosphorylated = target: T8, ABL1-nonphosphorylated (Homo sapiens, UniProt P00519)
T8 construct: purchased Eurofins DiscoverX KINOMEscan

[2] = target: T9, ABL1(Y253F)-phosphorylated (Homo sapiens, UniProt P00519, Y253F)
T9 construct: purchased Eurofins DiscoverX KINOMEscan

MAP4K4 = target: T10, MAP4K4 (Homo sapiens, UniProt O95819)
T10 construct: purchased Eurofins DiscoverX KINOMEscan
T10 sequence (O95819 whole entry): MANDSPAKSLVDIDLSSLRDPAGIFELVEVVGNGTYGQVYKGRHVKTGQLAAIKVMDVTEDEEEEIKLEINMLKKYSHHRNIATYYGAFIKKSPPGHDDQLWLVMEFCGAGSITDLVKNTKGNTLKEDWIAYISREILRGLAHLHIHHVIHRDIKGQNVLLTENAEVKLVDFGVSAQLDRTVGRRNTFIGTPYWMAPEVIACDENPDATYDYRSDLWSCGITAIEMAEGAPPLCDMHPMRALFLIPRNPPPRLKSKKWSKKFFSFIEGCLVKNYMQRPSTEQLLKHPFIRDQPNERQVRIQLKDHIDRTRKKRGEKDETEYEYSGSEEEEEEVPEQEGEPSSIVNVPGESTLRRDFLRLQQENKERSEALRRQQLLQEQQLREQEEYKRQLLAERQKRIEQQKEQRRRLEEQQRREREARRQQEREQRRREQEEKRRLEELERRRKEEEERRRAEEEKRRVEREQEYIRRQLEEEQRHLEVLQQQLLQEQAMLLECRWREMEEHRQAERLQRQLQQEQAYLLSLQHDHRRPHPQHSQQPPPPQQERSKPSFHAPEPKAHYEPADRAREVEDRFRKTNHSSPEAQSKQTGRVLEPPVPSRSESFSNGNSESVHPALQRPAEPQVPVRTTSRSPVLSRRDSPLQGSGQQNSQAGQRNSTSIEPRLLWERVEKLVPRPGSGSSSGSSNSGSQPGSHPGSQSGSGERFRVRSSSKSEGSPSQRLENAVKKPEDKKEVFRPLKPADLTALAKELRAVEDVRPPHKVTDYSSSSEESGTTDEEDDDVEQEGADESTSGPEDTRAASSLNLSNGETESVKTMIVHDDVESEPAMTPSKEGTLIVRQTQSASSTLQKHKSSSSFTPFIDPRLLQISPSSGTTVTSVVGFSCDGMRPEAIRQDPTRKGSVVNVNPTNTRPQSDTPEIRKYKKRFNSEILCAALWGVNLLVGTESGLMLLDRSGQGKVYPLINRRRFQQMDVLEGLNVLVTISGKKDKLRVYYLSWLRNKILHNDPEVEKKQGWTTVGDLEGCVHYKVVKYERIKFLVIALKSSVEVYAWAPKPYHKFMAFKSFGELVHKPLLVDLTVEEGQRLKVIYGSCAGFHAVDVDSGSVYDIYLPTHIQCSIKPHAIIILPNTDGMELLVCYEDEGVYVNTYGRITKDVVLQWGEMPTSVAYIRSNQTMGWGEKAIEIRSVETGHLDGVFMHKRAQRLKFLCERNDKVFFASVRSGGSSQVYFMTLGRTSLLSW

T2 sequence (P50613 whole entry): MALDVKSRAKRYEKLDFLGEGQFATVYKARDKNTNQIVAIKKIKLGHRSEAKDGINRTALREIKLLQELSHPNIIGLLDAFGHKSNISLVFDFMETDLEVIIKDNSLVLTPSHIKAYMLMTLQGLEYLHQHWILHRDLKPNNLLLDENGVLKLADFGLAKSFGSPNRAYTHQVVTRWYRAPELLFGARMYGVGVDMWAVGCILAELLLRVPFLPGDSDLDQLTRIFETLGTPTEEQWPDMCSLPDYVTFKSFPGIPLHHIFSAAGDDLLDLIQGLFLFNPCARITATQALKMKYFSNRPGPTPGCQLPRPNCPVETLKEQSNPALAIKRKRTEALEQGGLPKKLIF
T1 sequence (Q04912 25-1400): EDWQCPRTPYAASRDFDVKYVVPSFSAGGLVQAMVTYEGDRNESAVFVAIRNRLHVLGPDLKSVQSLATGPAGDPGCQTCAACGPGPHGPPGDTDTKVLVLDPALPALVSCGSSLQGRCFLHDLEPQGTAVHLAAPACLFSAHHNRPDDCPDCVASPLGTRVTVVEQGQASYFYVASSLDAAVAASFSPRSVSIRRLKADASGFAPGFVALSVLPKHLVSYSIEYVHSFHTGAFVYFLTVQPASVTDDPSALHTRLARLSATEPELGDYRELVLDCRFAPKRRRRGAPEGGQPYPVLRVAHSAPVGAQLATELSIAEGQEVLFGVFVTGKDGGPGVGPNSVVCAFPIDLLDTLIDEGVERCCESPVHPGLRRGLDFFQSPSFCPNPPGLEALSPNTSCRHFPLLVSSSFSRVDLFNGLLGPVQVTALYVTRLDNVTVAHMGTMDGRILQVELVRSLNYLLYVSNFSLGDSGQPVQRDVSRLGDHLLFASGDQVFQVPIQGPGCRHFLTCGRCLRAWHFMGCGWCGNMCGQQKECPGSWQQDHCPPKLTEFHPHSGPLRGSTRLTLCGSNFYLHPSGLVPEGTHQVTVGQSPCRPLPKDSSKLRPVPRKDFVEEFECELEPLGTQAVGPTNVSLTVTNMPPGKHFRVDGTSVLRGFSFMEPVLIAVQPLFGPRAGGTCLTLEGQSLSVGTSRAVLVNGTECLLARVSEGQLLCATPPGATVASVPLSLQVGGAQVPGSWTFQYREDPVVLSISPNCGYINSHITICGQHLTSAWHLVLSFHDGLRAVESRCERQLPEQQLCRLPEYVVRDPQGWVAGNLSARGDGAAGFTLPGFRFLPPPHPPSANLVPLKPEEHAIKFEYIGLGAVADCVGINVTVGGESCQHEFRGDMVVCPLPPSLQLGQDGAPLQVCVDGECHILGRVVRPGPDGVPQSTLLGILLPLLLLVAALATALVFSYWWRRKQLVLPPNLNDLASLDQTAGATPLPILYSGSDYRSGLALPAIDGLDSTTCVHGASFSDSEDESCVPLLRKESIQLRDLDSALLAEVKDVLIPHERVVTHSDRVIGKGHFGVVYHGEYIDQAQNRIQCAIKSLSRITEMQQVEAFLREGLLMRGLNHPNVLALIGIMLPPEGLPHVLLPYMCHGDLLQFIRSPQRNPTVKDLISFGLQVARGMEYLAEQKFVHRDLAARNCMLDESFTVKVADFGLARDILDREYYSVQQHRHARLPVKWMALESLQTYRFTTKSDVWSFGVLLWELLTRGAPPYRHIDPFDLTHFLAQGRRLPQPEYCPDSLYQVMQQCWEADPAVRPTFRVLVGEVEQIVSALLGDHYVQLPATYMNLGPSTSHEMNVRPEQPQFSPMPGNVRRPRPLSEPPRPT
T4 sequence (P00533 25-1210 L858R limits assumed): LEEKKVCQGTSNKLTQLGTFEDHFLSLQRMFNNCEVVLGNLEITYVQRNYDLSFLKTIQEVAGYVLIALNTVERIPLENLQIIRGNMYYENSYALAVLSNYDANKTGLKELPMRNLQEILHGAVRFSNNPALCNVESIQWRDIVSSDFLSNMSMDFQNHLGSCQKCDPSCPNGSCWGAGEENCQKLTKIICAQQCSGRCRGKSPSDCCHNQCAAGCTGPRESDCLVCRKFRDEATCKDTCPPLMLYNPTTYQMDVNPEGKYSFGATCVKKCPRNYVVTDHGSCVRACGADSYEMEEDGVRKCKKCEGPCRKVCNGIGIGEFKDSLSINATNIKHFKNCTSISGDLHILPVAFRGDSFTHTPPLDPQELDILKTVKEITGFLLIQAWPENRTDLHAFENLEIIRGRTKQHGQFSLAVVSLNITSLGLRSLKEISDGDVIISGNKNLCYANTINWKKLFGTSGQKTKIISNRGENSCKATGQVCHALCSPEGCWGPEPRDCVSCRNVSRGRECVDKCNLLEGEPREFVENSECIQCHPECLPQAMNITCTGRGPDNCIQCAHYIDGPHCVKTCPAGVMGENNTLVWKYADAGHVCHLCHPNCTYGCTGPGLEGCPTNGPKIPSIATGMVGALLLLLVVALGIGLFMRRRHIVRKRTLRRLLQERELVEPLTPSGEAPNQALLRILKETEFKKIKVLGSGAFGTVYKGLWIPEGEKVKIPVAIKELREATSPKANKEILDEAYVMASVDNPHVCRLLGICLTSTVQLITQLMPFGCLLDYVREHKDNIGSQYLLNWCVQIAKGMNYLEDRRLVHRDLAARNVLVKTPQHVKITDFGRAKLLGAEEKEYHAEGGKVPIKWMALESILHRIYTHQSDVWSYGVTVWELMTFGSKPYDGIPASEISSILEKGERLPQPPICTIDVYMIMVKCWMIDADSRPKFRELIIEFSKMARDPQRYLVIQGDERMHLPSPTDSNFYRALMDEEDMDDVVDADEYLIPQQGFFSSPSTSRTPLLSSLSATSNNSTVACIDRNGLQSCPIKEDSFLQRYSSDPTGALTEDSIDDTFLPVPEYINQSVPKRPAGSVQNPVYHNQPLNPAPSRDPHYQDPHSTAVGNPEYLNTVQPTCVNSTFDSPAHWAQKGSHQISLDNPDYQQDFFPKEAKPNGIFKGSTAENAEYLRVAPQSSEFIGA
T6 sequence (Q16512 whole entry): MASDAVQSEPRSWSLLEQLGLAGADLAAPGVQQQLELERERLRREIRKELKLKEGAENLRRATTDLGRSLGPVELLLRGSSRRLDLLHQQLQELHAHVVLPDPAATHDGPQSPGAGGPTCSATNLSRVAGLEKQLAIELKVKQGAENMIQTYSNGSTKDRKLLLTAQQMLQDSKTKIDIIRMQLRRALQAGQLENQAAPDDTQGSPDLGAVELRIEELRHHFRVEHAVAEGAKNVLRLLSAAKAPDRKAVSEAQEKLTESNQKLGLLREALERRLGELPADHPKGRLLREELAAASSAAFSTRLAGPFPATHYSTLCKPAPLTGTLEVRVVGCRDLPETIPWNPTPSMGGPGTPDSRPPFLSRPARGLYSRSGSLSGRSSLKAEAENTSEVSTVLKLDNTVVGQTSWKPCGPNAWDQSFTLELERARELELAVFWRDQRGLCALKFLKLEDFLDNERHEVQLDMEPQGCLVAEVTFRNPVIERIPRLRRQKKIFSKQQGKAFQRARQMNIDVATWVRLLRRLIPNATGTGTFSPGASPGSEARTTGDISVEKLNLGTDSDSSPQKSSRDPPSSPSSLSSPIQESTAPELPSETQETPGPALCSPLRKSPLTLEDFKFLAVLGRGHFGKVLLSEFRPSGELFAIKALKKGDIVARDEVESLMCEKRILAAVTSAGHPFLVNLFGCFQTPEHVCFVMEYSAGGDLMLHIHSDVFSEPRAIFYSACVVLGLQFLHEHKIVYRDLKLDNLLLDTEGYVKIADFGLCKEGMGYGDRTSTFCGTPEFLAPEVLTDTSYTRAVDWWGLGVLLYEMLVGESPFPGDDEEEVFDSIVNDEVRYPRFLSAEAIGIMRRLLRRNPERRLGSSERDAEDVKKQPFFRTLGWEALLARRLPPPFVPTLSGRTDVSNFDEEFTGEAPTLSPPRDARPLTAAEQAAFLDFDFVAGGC

| Compound | remaining binding at 1 µM (MST1R) | remaining binding at 1 µM (CDK7) | remaining binding at 1 µM (NEK11) | remaining binding at 1 µM (EGFR(L858R)) | remaining binding at 1 µM [1] | remaining binding at 1 µM (PKN1) | remaining binding at 1 µM (DYRK2) | remaining binding at 1 µM (ABL1-nonphosphorylated) | remaining binding at 1 µM [2] | remaining binding at 1 µM (MAP4K4) |
| --- | --- | --- | --- | --- | --- | --- | --- | --- | --- | --- |
| Clc1cc(NCC2CC2)c2ncc(-c3ccc4[nH]ncc4c3)n2n1 [compound 2, 6-Chloro-N-(cyclopropylmethyl)-3-(1H-indazol-5-yl)imidazo[1,2-b]pyridazin-8-amine] | 99% | 68% | 88% | 68% | 92% | 100% | 28% | 76% | 71% | 92% |
| O=C(CN1CCOCC1)N[C@H]1CC[C@H](Nc2cc(Cl)nn3c(-c4ccc5[nH]ncc5c4)cnc23)CC1 [compound 26] | 64% | 16% | 100% | 83% | 56% | 71% | 8% | 44% | 55% | 75% |
| CN1CCC(CNc2cc(Cl)nn3c(-c4cc5nc(Nc6ccccc6)[nH]c5cc4F)cnc23)CC1 [compound 31, 6-Chloro-3-(6-fluoro-2-(phenylamino)-1H-benzo[d]imidazol-5-yl)-N-((1-methylpiperidin-4-yl)methyl)imidazo[1,2-b]pyridazin-8-amine] | 77% | 61% | 92% | 100% | 88% | 91% | 99% | 58% | 75% | 100% |
